Experimental data as given in patent US12473304B2, “Heterocyclic PAD4 inhibitors” (BRISTOL-MYERS SQUIBB COMPANY, priority 2020, dated 2025).

What follows are compounds tested against human PAD4 (hPAD4) (Homo sapiens (Human), UniProt Q9UM07) (assay: RFMS Human PAD4 Functional Assay 1). Conditions: RFMS assay 1; 5 nM hPAD4, 250 μM BAEE substrate, 50 μM calcium, 37° C.
Assay type: biochemical
Procedure, shortened: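 Recombinant hPAD4 (5 nM) was preincubated with compound (top 50 μM, 0.5% DMSO) for 30 min at 37 °C, then reacted with 250 μM BAEE for 90 min at 37 °C in pH 7.5 HEPES buffer with 50 μM calcium and 5 μM TPEN. Product was derivatized with phenyl glyoxal and quantified by RapidFire MS.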

human PAD4 (hPAD4), sequence (Q9UM07 whole entry): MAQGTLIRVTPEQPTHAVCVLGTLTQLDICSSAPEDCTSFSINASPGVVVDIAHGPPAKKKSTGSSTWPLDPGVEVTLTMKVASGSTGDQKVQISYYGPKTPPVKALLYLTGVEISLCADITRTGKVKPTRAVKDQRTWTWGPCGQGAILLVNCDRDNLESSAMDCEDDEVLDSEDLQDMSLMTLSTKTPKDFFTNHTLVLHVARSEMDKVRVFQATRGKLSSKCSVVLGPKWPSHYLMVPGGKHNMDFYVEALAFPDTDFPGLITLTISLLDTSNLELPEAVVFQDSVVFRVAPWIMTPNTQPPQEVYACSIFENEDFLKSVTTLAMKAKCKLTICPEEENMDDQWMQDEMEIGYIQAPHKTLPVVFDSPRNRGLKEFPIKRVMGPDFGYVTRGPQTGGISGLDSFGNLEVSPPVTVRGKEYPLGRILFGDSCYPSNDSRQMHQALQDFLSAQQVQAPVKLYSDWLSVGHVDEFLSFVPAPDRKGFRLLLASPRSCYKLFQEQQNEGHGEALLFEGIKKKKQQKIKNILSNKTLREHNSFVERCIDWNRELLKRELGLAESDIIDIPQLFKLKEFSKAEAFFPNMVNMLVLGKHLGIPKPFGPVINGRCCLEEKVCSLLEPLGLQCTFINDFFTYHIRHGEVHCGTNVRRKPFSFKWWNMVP

IC50 [nM] | SMILES
90 | COc1cc(C(=O)N2CCC[C@@H](N)C2)cn2nc(-c3cc4cccc(C5CCN(C(=O)[C@H]6CC[C@@H](O)CC6)CC5)c4n3CC3CC3)c(C)c12 [Example 406, ((R)-3-Aminopiperidin-1-yl)(2-(1-(cyclopropylmethyl)-7-(1-((1s,4s)-4-hydroxycyclohexane-1-carbonyl)piperidin-4-yl)-1H-indol-2-yl)-4-methoxy-3-methylpyrazolo[1,5-a]pyridin-6-yl)methanone]
30 | COc1cc(C(=O)N2C[C@H](N)C[C@@H](F)C2)cn2nc(-c3cc4cccc(C5CCN(C(=O)[C@H]6CC[C@@H](O)CC6)CC5)c4n3CC3CC3)c(C)c12 [Example 407, ((3R,5R)-3-Amino-5-fluoropiperidin-1-yl)(2-(1-(cyclopropylmethyl)-7-(1-((1s,4s)-4-hydroxycyclohexane-1-carbonyl)piperidin-4-yl)-1H-indol-2-yl)-4-methoxy-3-methylpyrazolo[1,5-a]pyridin-6-yl)methanone]
40 | COc1cc(C(=O)N2CCC[C@@H](N)C2)cn2nc(-c3cc4cccc(C5CCN(C(=O)[C@H]6CC[C@H](O)CC6)CC5)c4n3CC3CC3)c(C)c12 [Example 408, ((R)-3-Aminopiperidin-1-yl)(2-(1-(cyclopropylmethyl)-7-(1-((1r,4r)-4-hydroxycyclohexane-1-carbonyl)piperidin-4-yl)-1H-indol-2-yl)-4-methoxy-3-methylpyrazolo[1,5-a]pyridin-6-yl)methanone]
40 | COc1cc(C(=O)N2C[C@H](N)C[C@@H](F)C2)cn2nc(-c3cc4cccc(C5CCN(C(=O)[C@H]6CC[C@H](O)CC6)CC5)c4n3CC3CC3)c(C)c12 [Example 409, ((3R,5R)-3-Amino-5-fluoropiperidin-1-yl)(2-(1-(cyclopropylmethyl)-7-(1-((1r,4r)-4-hydroxycyclohexane-1-carbonyl)piperidin-4-yl)-1H-indol-2-yl)-4-methoxy-3-methylpyrazolo[1,5-a]pyridin-6-yl)methanone]
90 | COc1cc(C(=O)N2CCC[C@@H](N)C2)cn2nc(-c3cc4cccc(C5CCN(C(C)=O)CC5)c4n3CC3CC3)c(C)c12 [Example 410, (R)-1-(4-(2-(6-(3-Aminopiperidine-1-carbonyl)-4-methoxy-3-methylpyrazolo[1,5-a]pyridin-2-yl)-1-(cyclopropylmethyl)-1H-indol-7-yl)piperidin-1-yl)ethan-1-one]
110 | COc1cc(C(=O)N2C[C@H](N)C[C@@H](F)C2)cn2nc(-c3cc4cccc(C5CCN(C(C)=O)CC5)c4n3CC3CC3)c(C)c12 [Example 411, 1-(4-(2-(6-((3R,5R)-3-Amino-5-fluoropiperidine-1-carbonyl)-4-methoxy-3-methylpyrazolo[1,5-a]pyridin-2-yl)-1-(cyclopropylmethyl)-1H-indol-7-yl)piperidin-1-yl)ethan-1-one]
10 | COc1cc(C(=O)N2CC3CCC2[C@@H]3N)cn2nc(-c3cc4cccc(C5CCN(C(C)=O)CC5)c4n3CC3CC3)c(C)c12 (stereo partly drawn) [Example 412, 1-(4-(2-(6-((7R)-7-Amino-2-azabicyclo[2.2.1]heptane-2-carbonyl)-4-methoxy-3-methylpyrazolo[1,5-a]pyridin-2-yl)-1-(cyclopropylmethyl)-1H-indol-7-yl)piperidin-1-yl)ethan-1-one]
30 | CC(=O)N1CCC(c2cccc3cc(-c4nn5cc(C(=O)N6CCC[C@@H](N)C6)cc(F)c5c4C)n(CC4CC4)c23)CC1 [Example 413, (R)-1-(4-(2-(6-(3-Aminopiperidine-1-carbonyl)-4-fluoro-3-methylpyrazolo[1,5-a]pyridin-2-yl)-1-(cyclopropylmethyl)-1H-indol-7-yl)piperidin-1-yl)ethan-1-one]
260 | Cc1c(-c2cc3cccc(C4CCN(C(=O)[C@H]5CC[C@H](O)CC5)CC4)c3n2CC2CC2)nn2cc(C(=O)N3C[C@H](N)C[C@@H](F)C3)cc(F)c12 [Example 414, ((3R,5R)-3-Amino-5-fluoropiperidin-1-yl)(2-(1-(cyclopropylmethyl)-7-(1-((1r,4r)-4-hydroxycyclohexane-1-carbonyl)piperidin-4-yl)-1H-indol-2-yl)-4-fluoro-3-methylpyrazolo[1,5-a]pyridin-6-yl)methanone]
460 | Cc1c(-c2cc3cccc(C4CCN(C(=O)[C@H]5CC[C@H](O)CC5)CC4)c3n2CC2CC2)nn2cc(C(=O)N3CCC[C@@H](N)C3)cc(F)c12 [Example 415, ((R)-3-Aminopiperidin-1-yl)(2-(1-(cyclopropylmethyl)-7-(1-((1r,4r)-4-hydroxycyclohexane-1-carbonyl)piperidin-4-yl)-1H-indol-2-yl)-4-fluoro-3-methylpyrazolo[1,5-a]pyridin-6-yl)methanone]
560 | Cc1c(-c2cc3cccc(C4CCN(C(=O)[C@H]5CC[C@@H](O)CC5)CC4)c3n2CC2CC2)nn2cc(C(=O)N3C[C@H](N)C[C@@H](F)C3)cc(F)c12 [Example 416, ((3R,5R)-3-Amino-5-fluoropiperidin-1-yl)(2-(1-(cyclopropylmethyl)-7-(1-((1s,4s)-4-hydroxycyclohexane-1-carbonyl)piperidin-4-yl)-1H-indol-2-yl)-4-fluoro-3-methylpyrazolo[1,5-a]pyridin-6-yl)methanone]
5060 | COC(C)(C)C(=O)N1CCC(c2cccc3cc(-c4nn5cc(C(=O)N6C[C@H](N)C[C@@H](F)C6)cc(F)c5c4C)n(CC4CC4)c23)CC1 [Example 417, 1-(4-(2-(6-((3R,5R)-3-Amino-5-fluoropiperidin-1-carbonyl)-4-fluoro-3-methylpyrazolo[1,5-a]pyridin-2-yl)-1-(cyclopropylmethyl)-1H-indol-7-yl)piperidin-1-yl)-2-methoxy-2-methylpropan-1-one]
1710 | COC(C)(C)C(=O)N1CCC(c2cccc3cc(-c4nn5cc(C(=O)N6CCC[C@@H](N)C6)cc(F)c5c4C)n(CC4CC4)c23)CC1 [Example 418, (R)-1-(4-(2-(6-(3-Aminopiperidin-1-carbonyl)-4-fluoro-3-methylpyrazolo[1,5-a]pyridin-2-yl)-1-(cyclopropylmethyl)-1H-indol-7-yl)piperidin-1-yl)-2-methoxy-2-methylpropan-1-one]
150 | CO[C@@H](C)C(=O)N1CCC(c2cccc3cc(-c4nn5cc(C(=O)N6C[C@H](N)C[C@@H](F)C6)cc(F)c5c4C)n(CC4CC4)c23)CC1 [Example 423, (S)-1-(4-(2-(6-((3R,5R)-3-Amino-5-fluoropiperidine-1-carbonyl)-4-fluoro-3-methylpyrazolo[1,5-a]pyridin-2-yl)-1-(cyclopropylmethyl)-1H-indol-7-yl)piperidin-1-yl)-2-methoxypropan-1-one]
80 | CO[C@@H](C)C(=O)N1CCC(c2cccc3cc(-c4nn5cc(C(=O)N6CCC[C@@H](N)C6)cc(F)c5c4C)n(CC4CC4)c23)CC1 [Example 424, (S)-1-(4-(2-(6-((R)-3-Aminopiperidine-1-carbonyl)-4-fluoro-3-methylpyrazolo[1,5-a]pyridin-2-yl)-1-(cyclopropylmethyl)-1H-indol-7-yl)piperidin-1-yl)-2-methoxypropan-1-one]
50 | CO[C@H](C)C(=O)N1CCC(c2cccc3cc(-c4nn5cc(C(=O)N6C[C@H](N)C[C@@H](F)C6)cc(F)c5c4C)n(CC4CC4)c23)CC1 [Example 425, (R)-1-(4-(2-(6-((3R,5R)-3-Amino-5-fluoropiperidine-1-carbonyl)-4-fluoro-3-methylpyrazolo[1,5-a]pyridin-2-yl)-1-(cyclopropylmethyl)-1H-indol-7-yl)piperidin-1-yl)-2-methoxypropan-1-one]
50 | CO[C@H](C)C(=O)N1CCC(c2cccc3cc(-c4nn5cc(C(=O)N6CCC[C@@H](N)C6)cc(F)c5c4C)n(CC4CC4)c23)CC1 [Example 426, (R)-1-(4-(2-(6-((R)-3-Aminopiperidine-1-carbonyl)-4-fluoro-3-methylpyrazolo[1,5-a]pyridin-2-yl)-1-(cyclopropylmethyl)-1H-indol-7-yl)piperidin-1-yl)-2-methoxypropan-1-one]
20 | CC(=O)N1CCC(c2cccc3cc(-c4nn5cc(C(=O)N6C[C@H](N)C[C@@H](F)C6)cc(F)c5c4C)n(CC4CC4)c23)CC1 [Example 427, 1-(4-(2-(6-((3R,5R)-3-Amino-5-fluoropiperidine-1-carbonyl)-4-fluoro-3-methylpyrazolo[1,5-a]pyridin-2-yl)-1-(cyclopropylmethyl)-1H-indol-7-yl)piperidin-1-yl)ethan-1-one]
30 | COCC(=O)N1CCC(c2cccc3cc(-c4nn5cc(C(=O)N6C[C@H](N)C[C@@H](F)C6)cc(F)c5c4C)n(CC4CC4)c23)CC1 [Example 428, 1-(4-(2-(6-((3R,5R)-3-Amino-5-fluoropiperidine-1-carbonyl)-4-fluoro-3-methylpyrazolo[1,5-a]pyridin-2-yl)-1-(cyclopropylmethyl)-1H-indol-7-yl)piperidin-1-yl)-2-methoxyethan-1-one]
40 | COCC(=O)N1CCC(c2cccc3cc(-c4nn5cc(C(=O)N6CCC[C@@H](N)C6)cc(F)c5c4C)n(CC4CC4)c23)CC1 [Example 429, (R)-1-(4-(2-(6-(3-Aminopiperidine-1-carbonyl)-4-fluoro-3-methylpyrazolo[1,5-a]pyridin-2-yl)-1-(cyclopropylmethyl)-1H-indol-7-yl)piperidin-1-yl)-2-methoxyethan-1-one]
80 | Cc1c(-c2cc3cccc(C4CCN(C(=O)CCO)CC4)c3n2CC2CC2)nn2cc(C(=O)N3C[C@H](N)C[C@@H](F)C3)ccc12 [Example 430, 1-(4-(2-(6-((3R,5R)-3-amino-5-fluoropiperidine-1-carbonyl)-3-methylpyrazolo[1,5-a]pyridin-2-yl)-1-(cyclopropylmethyl)-1H-indol-7-yl)piperidin-1-yl)-3-hydroxypropan-1-one]
